Patent publication US6476030B1, “Pyrazolo-triazine derivatives as ligands for GABA receptors” (Merck Sharp & Dohme Ltd., priority 1998, dated 2002)

A melting point of 69 °C was found for Cc1cccnc1COc1nn2c(-c3ccccc3F)nncc2c1-c1ccccc1F [Example 69, 3,7-bis(2-Fluorophenyl)-2-(3-methylpyridin-2-ylmethoxy)pyrazolo[1,5-d][1,2,4]triazine] in this work. A melting point of 179 °C was found for CCn1ncnc1COc1nn2c(-c3ccc(F)cc3)nncc2c1-c1ccccc1F [Example 47, 2-(2-Ethyl-2H-[1,2,4]triazol-3-ylmethoxy)-3-(2-fluorophenyl)-7-(4-fluorophenyl)pyrazolo[1,5-d][1,2,4]triazine] in this work. A melting point of 218 to 219 °C was found for Cn1ncnc1COc1nn2c(-c3ccccc3F)nncc2c1I [Example 96, 7-(2-Fluorophenyl)-3-iodo-2-(2-methyl-2H-[1,2,4]triazol-3-ylmethoxy)-pyrazolo[1,5-d][1,2,4]triazine] in this work. A melting point of 144 °C was found for Cn1ncnc1COc1nn2c(-c3cc(F)ccc3F)nncc2c1C(C)(C)C [Example 21, 7-(2,5-Difluorophenyl)-3-(1,1-dimethylethyl)-2-(2-methyl-2H-[1,2,4]triazol-3-ylmethoxy)pyrazolo[1,5-d][1,2,4]triazine] in this work. A melting point of 188 °C was found for Cn1nncc1COc1nn2c(-c3ccccc3F)nncc2c1-c1ccccc1F [Example 60, 3,7-bis(2-Fluorophenyl)-2-(3-methyl-3H-[1,2,3]triazol-4-ylmethoxy)pyrazolo[1,5-d][1,2,4]triazine] in this work. A melting point of 199 °C was found for Cn1ncnc1COc1nn2c(-c3cc(F)ccc3F)nncc2c1-c1ccccc1 [Example 13, 7-(2,5-Difluorophenyl)-2-(2-methyl-2H-[1,2,4]triazol-3-ylmethoxy)-3-phenylpyrazolo[1,5-d][1,2,4]triazine] in this work. A melting point of 152 to 155 °C was found for Cn1ncnc1COc1nn2c(-c3ccccc3F)nncc2c1-c1cccc(C(F)(F)F)c1 [Example 18, 7-(2-Fluorophenyl)-2-(2-methyl-2H-[1,2,4]triazol-3-ylmethoxy)-3-[3-(trifluoromethyl)phenyl]pyrazolo[1,5-d][1,2,4]triazine] in this work. A melting point of 176 °C was found for Cn1ncnc1COc1nn2c(-c3ccccc3F)nncc2c1-c1cccc(F)c1F [Example 16, 3-(2,3-Difluorophenyl)-7-(2-fluorophenyl)2-(2-methyl-2H-[1,2,4]triazol-3-ylmethoxy)pyrazolo[1,5-d][1,2,4]triazine] in this work. A melting point of 155 to 157 °C was found for Cn1ncnc1COc1nn2c(-c3ccccc3Cl)nncc2c1-c1ccccc1F [Example 88, 7-(2-Chlorophenyl)-3-(2-fluorophenyl)-2-(2-methyl-2H-[1,2,4]triazol-3-ylmethoxy)pyrazolo[1,5-d][1,2,4]triazine] in this work. A melting point of 169 °C was found for Cn1ncnc1COc1nn2c(-c3ccccc3F)nncc2c1-c1ccccc1F [Example 2, 3-(2-Fluorophenyl)-7-(2-fluorophenyl)-2-(2-methyl-2H-[1,2,4]triazol-3-ylmethoxy)pyrazolo[1,5-d][1,2,4]triazine] in this work. A melting point of 189 °C was found for Fc1ccccc1-c1c(OCc2ccncn2)nn2c(-c3ccccc3F)nncc12 [Example 78, 3,7-bis(2-Fluorophenyl)-2-(pyrimidin-4-ylmethoxy)pyrazolo[1,5-d][1,2,4]triazine] in this work. A melting point of 150 to 152 °C was found for Fc1ccccc1-c1c(OCc2nc3n(n2)CCCC3)nn2c(-c3ccccc3F)nncc12 [Example 83, 3,7-bis(2-Fluorophenyl)-2-(5,6,7,8-tetrahydro[1,2,4]triazolo[1,5-a]pyridin-2-ylmethoxy)pyrazolo[1,5-d][1,2,4]triazine] in this work. A melting point of 183 °C was found for Cc1cc(COc2nn3c(-c4ccccc4F)nncc3c2-c2ccccc2F)nn1C [Example 90, 3,7-bis(2-Fluorophenyl)-2-(1,5-dimethyl-1H-pyrazol-3-ylmethoxy)-pyrazolo[1,5-d][1,2,4]triazine] in this work. A melting point of 212 °C was found for Fc1ccccc1-c1c(OCc2cscn2)nn2c(-c3ccccc3F)nncc12 [Example 73, 3,7-bis(2-Fluorophenyl)-2-(thiazol-4-ylmethoxy)pyrazolo[1,5-d][1,2,4]triazine] in this work.
